Columns and labels:
Assay type in all cases: cell-based
[1] = biological target: T1, Nuclear factor erythroid 2-related factor 2 (Homo sapiens) (UniProt Q16236); assay: Activation of Nrf2 in human HepG2-ARE-C8 cells assessed as upregulation of ARE level at 80 uM after 12 hrs by luciferase reporter gene assay relative to control
T1 sequence (whole entry): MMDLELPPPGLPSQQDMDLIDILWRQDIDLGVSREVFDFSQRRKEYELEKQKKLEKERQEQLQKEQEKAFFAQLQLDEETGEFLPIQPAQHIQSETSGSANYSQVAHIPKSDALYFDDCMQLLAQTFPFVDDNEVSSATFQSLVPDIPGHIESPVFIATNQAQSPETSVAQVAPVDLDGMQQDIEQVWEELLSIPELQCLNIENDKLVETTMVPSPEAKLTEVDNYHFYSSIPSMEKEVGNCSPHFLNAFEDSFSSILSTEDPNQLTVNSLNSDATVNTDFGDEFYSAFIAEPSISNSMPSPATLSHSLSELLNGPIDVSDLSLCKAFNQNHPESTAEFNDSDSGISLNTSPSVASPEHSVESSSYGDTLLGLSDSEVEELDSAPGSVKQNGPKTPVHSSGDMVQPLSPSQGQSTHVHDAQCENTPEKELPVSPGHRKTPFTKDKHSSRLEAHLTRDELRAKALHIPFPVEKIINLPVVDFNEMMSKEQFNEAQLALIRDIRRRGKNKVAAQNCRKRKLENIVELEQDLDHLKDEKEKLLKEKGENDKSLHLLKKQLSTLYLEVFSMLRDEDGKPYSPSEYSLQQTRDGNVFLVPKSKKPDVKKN

[2] = biological target: T1, Nuclear factor erythroid 2-related factor 2 (Homo sapiens); assay: Activation of Nrf2 in human HepG2-ARE-C8 cells assessed as upregulation of ARE level at 40 uM after 12 hrs by luciferase reporter gene assay relative to control
[3] = biological target: T1, Nuclear factor erythroid 2-related factor 2 (Homo sapiens); assay: Activation of Nrf2 in human HepG2-ARE-C8 cells assessed as upregulation of ARE level at 0.02 uM after 12 hrs by luciferase reporter gene assay relative to control
[4] = biological target: T1, Nuclear factor erythroid 2-related factor 2 (Homo sapiens); assay: Activation of Nrf2 in human HepG2-ARE-C8 cells assessed as upregulation of ARE level at 20 uM after 12 hrs by luciferase reporter gene assay relative to control
[5] = biological target: T1, Nuclear factor erythroid 2-related factor 2 (Homo sapiens); assay: Activation of Nrf2 in human HepG2-ARE-C8 cells assessed as upregulation of ARE level at 2 uM after 12 hrs by luciferase reporter gene assay relative to control
[6] = biological target: T1, Nuclear factor erythroid 2-related factor 2 (Homo sapiens); assay: Activation of Nrf2 in human HepG2-ARE-C8 cells assessed as upregulation of ARE level at 160 uM after 12 hrs by luciferase reporter gene assay relative to control
[7] = system: HCT-116; assay: Cytotoxicity against human HCT116 cells assessed as reduction of cell proliferation at 80 uM after 24 hrs by MTT assay; settings: hct-116, 24 h
[8] = biological target: T1, Nuclear factor erythroid 2-related factor 2 (Homo sapiens); assay: Activation of Nrf2 in human HepG2-ARE-C8 cells assessed as upregulation of ARE level at 0.2 uM after 12 hrs by luciferase reporter gene assay relative to control

| SMILES | fold change (FC) [1] | fold change (FC) [2] | fold change (FC) [3] | fold change (FC) [4] | fold change (FC) [5] | fold change (FC) [6] | Activity [7] | fold change (FC) [8] |
| --- | --- | --- | --- | --- | --- | --- | --- | --- |
| COc1ccccc1-c1nc(-c2ccc3nc[nH]c3c2)no1 | 8.46 | 10.7 | 1.24 | 5.96 | 1.62 | 5.85 | Non-toxic | 1.39 |
| COc1cccc(-c2nc(-c3ccc4nc[nH]c4c3)no2)c1 | 12.4 | 14.4 | 1.79 | 12.4 | 3.16 | 8.38 | Non-toxic | 1.95 |
| N#Cc1ccccc1-c1nc(-c2ccc3nc[nH]c3c2)no1 | 1.39 | 1.32 | 1.36 | 1.33 | 2.46 | 2.09 | Non-toxic | 1.48 |
| FC(F)(F)c1cccc(-c2nc(-c3ccc4nc[nH]c4c3)no2)c1 | 3.45 | 5.65 | 2.56 | 10.5 | 13.9 | 2.94 | Non-toxic | 8.04 |
| COc1ccc(OC)c(-c2nc(-c3ccc4nc[nH]c4c3)no2)c1 | 3.7 | 4.24 | 1.7 | 4.48 | 3.21 | 5.2 | Non-toxic | 2.96 |
| Oc1ccc(-c2nc(-c3ccc4nc[nH]c4c3)no2)cc1 | 8.81 | 8.67 | 1.56 | 6.23 | 2.19 | 7.35 | Non-toxic | 1.65 |
| c1ccc(-c2nc(-c3ccc4nc[nH]c4c3)no2)nc1 | 2.65 | 7.51 | 1.06 | 9.49 | 5.09 | 2.55 | Non-toxic | 3.42 |
| FC(F)(F)c1ccc(-c2nc(-c3ccc4nc[nH]c4c3)no2)cc1 | 6.56 | 21.6 | 1.35 | 17.7 | 6.91 | 1.13 | Non-toxic | 2.85 |
| CCCc1ccc(-c2nc(-c3ccc4nc[nH]c4c3)no2)cc1 | 7.79 | 6.16 | 1.48 | 6.07 | 2.25 | 10 | Non-toxic | 1.73 |
| c1cc2ccc(-c3nc(-c4ccc5nc[nH]c5c4)no3)cc2[nH]1 | 11.6 | 11 | 1.22 | 10.2 | 1.77 | 8.88 | Non-toxic | 1.5 |
| Cn1cnc2ccc(-c3noc(-c4ccc5ccccc5c4)n3)cc21 | 1.37 | 1.45 | 1.44 | 1.39 | 1.43 | 2.44 | Non-toxic | 1.4 |
| Cc1cccc(-c2nc(-c3ccc4nc[nH]c4c3)no2)c1 | 17.3 | 10.4 | 1.44 | 14.2 | 4.84 | 8.99 | Non-toxic | 1.94 |
| COc1cc(-c2nc(-c3ccc4nc[nH]c4c3)no2)cc(OC)c1OC | 13.9 | 3.24 | 1.31 | 3.23 | 2.41 | 22.5 | Non-toxic | 2.24 |
| N#Cc1cccc(-c2nc(-c3ccc4nc[nH]c4c3)no2)c1 | 3.16 | 0.91 | 1.26 | 0.87 | 1.42 | 8.05 | Non-toxic | 1.36 |
| COC(=O)/C=C/C(=O)OC | – | 2.97 | 0.82 | 1.65 | 1.1 | – | – | 1 |
| Cc1ccc(-c2nc(-c3ccc4nc[nH]c4c3)no2)cc1 | 12.7 | 16.6 | 2.11 | 20.6 | 7.78 | 9.22 | Non-toxic | 3.29 |
| c1ccc(-c2ccc(-c3nc(-c4ccc5nc[nH]c5c4)no3)cc2)cc1 | 15 | 10.7 | 1.18 | 2 | 1.52 | 11 | Non-toxic | 1.54 |
| N#Cc1ccc(-c2nc(-c3ccc4nc[nH]c4c3)no2)cc1 | 10 | 11.9 | 1.22 | 8.12 | 1.35 | 12.7 | Non-toxic | 1.25 |
| COc1ccc(-c2nc(-c3ccc4nc[nH]c4c3)no2)c(OC)c1 | 4.35 | 11.6 | 1.25 | 8.57 | 2.84 | 1.46 | Non-toxic | 1.59 |
| CCCCc1ccc(-c2nc(-c3ccc4nc[nH]c4c3)no2)cc1 | 14.8 | 37.6 | 1.55 | 30.8 | 10.9 | 12 | Non-toxic | 2.08 |
| Cc1ccccc1-c1nc(-c2ccc3nc[nH]c3c2)no1 | 18.5 | 10.8 | 1.4 | 10.9 | 3.52 | 7.85 | Non-toxic | 1.59 |
| Oc1ccccc1-c1nc(-c2ccc3nc[nH]c3c2)no1 | 1.34 | 2.75 | 1.72 | 2.67 | 1.53 | 1.17 | Non-toxic | 1.54 |
| Cn1cnc2ccc(-c3noc(-c4ccccc4)n3)cc21 | 3.33 | 8.41 | 2.03 | 17.4 | 18.2 | 1.75 | Non-toxic | 3.41 |
| Oc1cccc(-c2nc(-c3ccc4nc[nH]c4c3)no2)c1 | 4.05 | 4.18 | 1.68 | 8.62 | 2.44 | 3.93 | Non-toxic | 1.71 |
| CC(C)(C)C1=CC(=O)C=CC1=O | 5.27 | 2.14 | 1.18 | 1.41 | 1.24 | 8.46 | – | 1.25 |
